In this experiment the test system is Lewis lung carcinoma i.m., BDF1 mice, T/C %. Description: NCI In Vivo Anticancer Drug Screen. Data for tumor model Lewis Lung Carcinoma (intramuscular) in B6D2F1 (BDF1) mice. An outline of the steps: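 Antitumour activity is assessed in transplanted-tumour mice. Endpoint is survival or tumour size, normalised to vehicle-dosed controls (T/C).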

Several values for one entry are separate records, joined by “and”; a condition that tells them apart may be missing. Equal values may be shown once. Records with an inconclusive call do not appear. Residues, ends and D or L forms follow the SMILES beside them. *: point of attachment. Trt = c1ccc(C(c2ccccc2)(c2ccccc2)*)cc1; Cbz = O=C(OCc1ccccc1)*; Bn = c1ccc(C*)cc1; βAla = NCCC(=O)O

Consider `COC(=O)C(CSC(c1ccccc1)(c1ccccc1)c1ccccc1)NC(=O)C(CSCc1ccccc1)NC(=O)CCNC(=O)OCc1ccccc1` (stereo not drawn) ({Cbz-βAla}-Cys(Bn)-Cys(Trt)-OMe; configuration not given here), for which the T/C (endpoint: median survival time, dose: 4.0 mg/kg/injection, schedule: Q01DX009 (ip), vehicle: Klucel (hydroxypropylcellulose) (HPC), higher = longer survival) is 121 % of control; the T/C (endpoint: median survival time, dose: 32.0 mg/kg/injection, schedule: Q01DX009 (ip), vehicle: Klucel (hydroxypropylcellulose) (HPC), higher = longer survival) was 171 % of control; the T/C (endpoint: median survival time, dose: 64.0 mg/kg/injection, schedule: Q01DX009 (ip), vehicle: Klucel (hydroxypropylcellulose) (HPC), higher = longer survival) was 161 % of control.

On to `O=C(CBr)c1ccc(I)cc1`, for which the T/C (endpoint: median survival time, dose: 1.25 mg/kg/injection, schedule: Q01DX011 (ip), vehicle: saline with Tween-80, higher = longer survival) was 102 % of control; the T/C (endpoint: median survival time, dose: 2.5 mg/kg/injection, schedule: Q01DX011 (ip), vehicle: saline with Tween-80, higher = longer survival) was 86 % of control; the T/C (endpoint: median survival time, dose: 5.0 mg/kg/injection, schedule: Q01DX011 (ip), vehicle: saline with Tween-80, higher = longer survival) was 89 % of control; the T/C (endpoint: median survival time, dose: 10.0 mg/kg/injection, schedule: Q01DX011 (ip), vehicle: saline with Tween-80, higher = longer survival) is 104 % of control.

For the compound `CCC[CH2][Sn](=[S])[CH2]CCC`, the T/C is, setting by setting: (endpoint: mean tumor weight (est.), dose: 6.25 mg/kg/injection, schedule: Q01DX011 (ip), vehicle: saline with Tween-80, higher = larger tumour) 103 % of control; (endpoint: mean tumor weight (est.), dose: 12.5 mg/kg/injection, schedule: Q01DX011 (ip), vehicle: saline with Tween-80, higher = larger tumour) 77 % of control; (endpoint: mean tumor weight (est.), dose: 25.0 mg/kg/injection, schedule: Q01DX011 (ip), vehicle: saline with Tween-80, higher = larger tumour) 55 % of control; (endpoint: median survival time, dose: 6.25 mg/kg/injection, schedule: Q01DX011 (ip), vehicle: saline with Tween-80, higher = longer survival) 102 % of control; (endpoint: median survival time, dose: 12.5 mg/kg/injection, schedule: Q01DX011 (ip), vehicle: saline with Tween-80, higher = longer survival) 116 % of control; (endpoint: median survival time, dose: 25.0 mg/kg/injection, schedule: Q01DX011 (ip), vehicle: saline with Tween-80, higher = longer survival) 112 % of control.

As for `COc1cc([C@@H]2c3cc4c(cc3[C@@H](OC3OC5CO[C@@H](c6cccs6)OC5C(O)C3O)[C@H]3COC(=O)[C@H]23)OCO4)cc(OC)c1O` (stereo partly drawn), the T/C (endpoint: mean tumor weight (est.), dose: 0.25 mg/kg/injection, schedule: Q01DX011 (ip), vehicle: saline, higher = larger tumour) was 98 % of control; the T/C (endpoint: mean tumor weight (est.), dose: 0.5 mg/kg/injection, schedule: Q01DX011 (ip), vehicle: saline, higher = larger tumour) is 74 % of control; the T/C (endpoint: mean tumor weight (est.), dose: 1.0 mg/kg/injection, schedule: Q01DX011 (ip), vehicle: saline, higher = larger tumour) was 68 % of control; the T/C (endpoint: mean tumor weight (est.), dose: 2.0 mg/kg/injection, schedule: Q01DX011 (ip), vehicle: saline, higher = larger tumour) is 45 % of control; the T/C (endpoint: median survival time, dose: 0.25 mg/kg/injection, schedule: Q01DX011 (ip), vehicle: saline, higher = longer survival) is 118 % of control; the T/C (endpoint: median survival time, dose: 0.5 mg/kg/injection, schedule: Q01DX011 (ip), vehicle: saline, higher = longer survival) is 104 % of control. Further, the T/C reads like this: (endpoint: median survival time, dose: 1.0 mg/kg/injection, schedule: Q01DX011 (ip), vehicle: saline, higher = longer survival) 106 % of control; (endpoint: median survival time, dose: 2.0 mg/kg/injection, schedule: Q01DX011 (ip), vehicle: saline, higher = longer survival) 114 % of control; (endpoint: median survival time, dose: 2.0 mg/kg/injection, schedule: Q04DX003 (ip), vehicle: saline, higher = longer survival) 104 % of control; (endpoint: median survival time, dose: 4.0 mg/kg/injection, schedule: Q04DX003 (ip), vehicle: saline, higher = longer survival) 105 % of control; (endpoint: median survival time, dose: 8.0 mg/kg/injection, schedule: Q04DX003 (ip), vehicle: saline, higher = longer survival) 115 % of control; (endpoint: median survival time, dose: 32.0 mg/kg/injection, schedule: Q04DX003 (ip), vehicle: saline, higher = longer survival) 37 % of control.

As to `CN(C)C(=O)c1cccc(COc2ccc(N3C(N)=NC(N)=NC3(C)C)cc2Cl)c1`, the T/C was 66 % of control (endpoint: mean tumor weight, dose: 3.13 mg/kg/injection, schedule: Q01DX011 (ip), vehicle: saline, higher = larger tumour); 66 % of control (endpoint: mean tumor weight, dose: 12.5 mg/kg/injection, schedule: Q01DX011 (ip), vehicle: saline, higher = larger tumour); 103 % of control (endpoint: median survival time, dose: 3.13 mg/kg/injection, schedule: Q01DX011 (ip), vehicle: saline, higher = longer survival); 88 % of control (endpoint: median survival time, dose: 12.5 mg/kg/injection, schedule: Q01DX011 (ip), vehicle: saline, higher = longer survival).

As to `CN(Cc1cnc2nc(N)nc(N)c2n1)c1ccc(C(=O)N[C@@H](CCC(=O)O)C(=O)O)cc1`, the T/C reads like this: (endpoint: mean tumor weight, dose: 0.23 mg/kg/injection, schedule: Q01DX009 (ip), vehicle: sodium bicarbonate, higher = larger tumour) 107 % of control; (endpoint: mean tumor weight, dose: 0.31 mg/kg/injection, schedule: Q01DX011 (ip), vehicle: other, higher = larger tumour) 86 % of control and 100 % of control and 109 % of control; (endpoint: mean tumor weight, dose: 0.39 mg/kg/injection, schedule: Q01DX009 (ip), vehicle: sodium bicarbonate, higher = larger tumour) 71 % of control; (endpoint: mean tumor weight, dose: 0.65 mg/kg/injection, schedule: Q01DX009 (ip), vehicle: sodium bicarbonate, higher = larger tumour) 48 % of control and 69 % of control; (endpoint: mean tumor weight, dose: 1.08 mg/kg/injection, schedule: Q01DX009 (ip), vehicle: sodium bicarbonate, higher = larger tumour) 53 % of control and 59 % of control; (endpoint: mean tumor weight, dose: 1.8 mg/kg/injection, schedule: Q01DX009 (ip), vehicle: sodium bicarbonate, higher = larger tumour) 40 % of control and 44 % of control. In addition, the T/C is 94 % of control (endpoint: mean tumor weight, dose: 2.5 mg/kg/injection, schedule: Q01DX011 (ip), vehicle: other, higher = larger tumour); 57 % of control (endpoint: mean tumor weight, dose: 23.0 mg/kg/injection, schedule: Q04DX003 (ip), vehicle: sodium bicarbonate, higher = larger tumour); 33 % of control (endpoint: mean tumor weight, dose: 39.0 mg/kg/injection, schedule: Q04DX003 (ip), vehicle: sodium bicarbonate, higher = larger tumour); 13 % of control (endpoint: mean tumor weight, dose: 65.0 mg/kg/injection, schedule: Q04DX003 (ip), vehicle: sodium bicarbonate, higher = larger tumour); 123 % of control (endpoint: median survival time, dose: 0.12 mg/kg/injection, schedule: Q01DX011 (ip), vehicle: sodium bicarbonate, higher = longer survival); 90 % of control and 93 % of control (endpoint: median survival time, dose: 0.23 mg/kg/injection, schedule: Q01DX009 (ip), vehicle: sodium bicarbonate, higher = longer survival). For the same compound, the T/C (endpoint: median survival time, dose: 0.25 mg/kg/injection, schedule: Q01DX011 (ip), vehicle: sodium bicarbonate, higher = longer survival) was 112 % of control and 122 % of control; the T/C (endpoint: median survival time, dose: 0.39 mg/kg/injection, schedule: Q01DX009 (ip), vehicle: sodium bicarbonate, higher = longer survival) is 118 % of control and 121 % of control; the T/C (endpoint: median survival time, dose: 0.5 mg/kg/injection, schedule: Q01DX011 (ip), vehicle: sodium bicarbonate, higher = longer survival) is 108 % of control and 109 % of control; the T/C (endpoint: median survival time, dose: 1.0 mg/kg/injection, schedule: Q01DX011 (ip), vehicle: sodium bicarbonate, higher = longer survival) was 107 % of control; the T/C (endpoint: median survival time, dose: 2.0 mg/kg/injection, schedule: Q01DX011 (ip), vehicle: sodium bicarbonate, higher = longer survival) is 121 % of control; the T/C (endpoint: median survival time, dose: 3.0 mg/kg/injection, schedule: Q01DX009 (ip), vehicle: sodium bicarbonate, higher = longer survival) was 32 % of control. The T/C runs as follows: (endpoint: median survival time, dose: 14.0 mg/kg/injection, schedule: Q04DX003 (ip), vehicle: sodium bicarbonate, higher = longer survival) 89 % of control; (endpoint: median survival time, dose: 23.0 mg/kg/injection, schedule: Q04DX003 (ip), vehicle: sodium bicarbonate, higher = longer survival) 90 % of control and 98 % of control; (endpoint: median survival time, dose: 39.0 mg/kg/injection, schedule: Q04DX003 (ip), vehicle: sodium bicarbonate, higher = longer survival) 100 % of control and 112 % of control; (endpoint: median survival time, dose: 65.0 mg/kg/injection, schedule: Q04DX003 (ip), vehicle: sodium bicarbonate, higher = longer survival) 34 % of control and 112 % of control.

Consider `Cc1c2ccncc2c(C)c2c1[nH]c1ccccc12`, for which the T/C was 100 % of control (endpoint: median survival time, dose: 1.56 mg/kg/injection, schedule: Q01DX011 (ip), vehicle: water, higher = longer survival); 100 % of control (endpoint: median survival time, dose: 3.12 mg/kg/injection, schedule: Q01DX011 (ip), vehicle: water, higher = longer survival); 108 % of control (endpoint: median survival time, dose: 6.25 mg/kg/injection, schedule: Q01DX011 (ip), vehicle: water, higher = longer survival).

Take `COC1=C(N)C(=O)c2nc(-c3nc(C(=O)O)c(C)c(-c4ccc(OC)c(OC)c4O)c3N)ccc2C1=O`: the T/C runs as follows: (endpoint: median survival time, dose: 0.02 mg/kg/injection, schedule: Q01DX011 (ip), vehicle: other, higher = longer survival) 105 % of control; (endpoint: median survival time, dose: 0.02 mg/kg/injection, schedule: Q01DX011 (ip), vehicle: saline, higher = longer survival) 92 % of control; (endpoint: median survival time, dose: 0.03 mg/kg/injection, schedule: Q01DX009 (ip), vehicle: saline, higher = longer survival) 86 % of control; (endpoint: median survival time, dose: 0.03 mg/kg/injection, schedule: Q01DX011 (ip), vehicle: saline, higher = longer survival) 96 % of control; (endpoint: median survival time, dose: 0.05 mg/kg/injection, schedule: Q01DX009 (ip), vehicle: saline, higher = longer survival) 90 % of control; (endpoint: median survival time, dose: 0.05 mg/kg/injection, schedule: Q01DX011 (ip), vehicle: other, higher = longer survival) 90 % of control. Also, the T/C runs as follows: (endpoint: median survival time, dose: 0.06 mg/kg/injection, schedule: Q01DX011 (ip), vehicle: saline, higher = longer survival) 94 % of control; (endpoint: median survival time, dose: 0.1 mg/kg/injection, schedule: Q01DX011 (ip), vehicle: other, higher = longer survival) 100 % of control; (endpoint: median tumor weight (est.), dose: 0.02 mg/kg/injection, schedule: Q01DX011 (ip), vehicle: saline, higher = larger tumour) 72 % of control; (endpoint: median tumor weight (est.), dose: 0.03 mg/kg/injection, schedule: Q01DX011 (ip), vehicle: saline, higher = larger tumour) 81 % of control; (endpoint: median tumor weight (est.), dose: 0.06 mg/kg/injection, schedule: Q01DX011 (ip), vehicle: saline, higher = larger tumour) 77 % of control; (endpoint: median tumor weight (est.), dose: 0.12 mg/kg/injection, schedule: Q01DX011 (ip), vehicle: saline, higher = larger tumour) 55 % of control.

`N[C@H](C(=O)O)[C@@H]1CC(Cl)=NO1`: the T/C by setting is: (endpoint: median survival time, dose: 1.0 mg/kg/injection, schedule: Q01DX013 (ip), vehicle: saline, higher = longer survival) 101 % of control; (endpoint: median survival time, dose: 2.0 mg/kg/injection, schedule: Q01DX013 (ip), vehicle: saline, higher = longer survival) 100 % of control.
